Source: article PMC10218704, “A Novel Blood–Brain Barrier-Penetrating and Vascular-Targeting Chimeric Peptide Inhibits Glioma Angiogenesis” (International Journal of Molecular Sciences, 2023)
Ends that are not written are not given here.

Tests used:
HUVECs [1] = test: Wound healing assay (cell migration); assay type: cell-based, human; settings: 160 μmol/L; VEGF-A165 30 ng/mL; at 24 h or 48 h after scratch; n = 3
Experimental: HUVECs were firstly seeded into 6-well culture plates (3 × 10^5 cells/well). Following overnight incubation, the monolayer HUVECs were scraped by pipette tips of 200 μL and washed by cold PBS. […] The cells were incubated for another 48 h. Images were captured at 0 h, 24 h, and 48 h using an inverted microscope. The cell migration rate was counted by the ImageJ software.

HUVECs [2] = test: Tube formation assay on Matrigel; assay type: cell-based, human; settings: 160 μmol/L, VEGF-A165 30 ng/mL, 6 h, n = 3
Experimental: Matrigel was added to 96-well plates with 60 min of incubation at 37 °C for solidification. […] The tubular structures were observed under an inverted microscope and the total branching lengths were calculated by the ImageJ V 1.8.0 software.

HUVECs [3] = test: Hoechst 33,258 staining (apoptosis); assay type: cell-based, human; settings: 320 μmol/L; 24 h
Experimental: HUVECs were seeded into 6-well culture plates (3 × 10^5 cells/well). […] After discarding the supernatant and washing with cold PBS, the cells were fixed in 4% paraformaldehyde and stained with Hoechst 33,258 for 10 min. Then, the cells were washed with cold PBS and observed using an inverted fluorescence microscope.

VEGFR-2 = test: Western blot, phosphorylation of VEGFR-2; assay type: cell-based, human; settings: 320 μmol/L; 90 min; VEGF-A165 30 ng/mL; HUVECs; n = 3
Experimental: (§1) For Western blotting analysis, HUVECs were seeded into 6-well culture plates at 3 × 10^5 cells/well and incubated overnight. […] Two control groups (F-12K medium in the absence or presence of VEGF-A165) were set. The cells were washed with cold PBS and lysed with lysis buffer (protease and phosphatase inhibitors) on the ice for 30 min, and then centrifuged at 4 °C for 15 min at 14,000 r/min. The supernatant was collected, and its total protein concentration was determined by the BCA protein assay kit. Equal amounts of proteins were separated by 10% SDS-PAGE gels and transferred to polyvinylidene difluoride (PVDF) membranes. After blocking with 5% non-fat milk for 1 h, the membranes were incubated with specific antibodies at 4 °C overnight. Then, the membranes were washed with TBST (Tris-Buffered Saline with 0.1% Tween 20) and incubated with horseradish peroxidase (HRP)-conjugated secondary antibody for 1 h at room temperature. The proteins on the membranes were visualized with enhanced chemiluminescence agents.

PLC-γ = test: Western blot, phosphorylation of PLC-γ; assay type: cell-based, human; settings: 320 μmol/L, 90 min, VEGF-A165 30 ng/mL, HUVECs, vs control, AT7, TAT, n = 3
Experimental: as §1

SRC = test: Western blot, phosphorylation of SRC; assay type: cell-based, human; settings: 320 μmol/L, 90 min, VEGF-A165 30 ng/mL, HUVECs, vs control, AT7, TAT, n = 3
Experimental: as §1

[4] = tested on: VEGFR-2 and the above kinases (PLC-γ, ERK1/2, SRC, AKT, FAK); test: Western blot, total expression levels; assay type: cell-based, human; settings: 320 μmol/L; 90 min; VEGF-A165 30 ng/mL; HUVECs; n = 3
Experimental: as §1

red blood cells = test: Hemolysis assay; settings: 2.5–640 μmol/L; 37 °C, 1 h; 540 nm; mouse red blood cells; n = 3
Experimental: The fresh blood of mice was centrifuged at 2000 r/min for 10 min, and the upper layer of serum was discarded, then mixed with normal saline and centrifuged at 2000 r/min for 10 min, repeated three times, and the supernatant was removed to obtain the lower layer of red blood cells. Then, 1 mL of red blood cells was diluted to 50 mL with normal saline. […] The samples were incubated at 37 °C for 1 h, centrifuged at 2000 r/min for 10 min, and photographed. Light absorption of samples was measured at 540 nm on a microplate reader.
Cell hemolysis rate (%) = (OD experimental group − negative control group)/(OD positive control group − negative control group) × 100%.

[5] = Body weight and physiological status of glioma-bearing nude mice; assay type: in vivo; settings: 20 mg/kg/day i.v., 11 days
Experimental: (§2) The orthotopic U87-mCherry-luc glioma-bearing nude mice were randomly assigned to 6 groups (n = 5) according to the bioluminescence intensity of glioma measured on day 4. […] The bioluminescence intensity was measured on days 4, 7, 11, and 14, respectively. Nude mice were weighed daily. On day 15, the mice were sacrificed, and the glioma-bearing brains were harvested. The brain tissues were fixed with 4.0% paraformaldehyde, embedded in paraffin, and cut into slices. The TUNEL staining and CD31 immunohistochemical staining were conducted according to standard histological procedures.

[6] = tested on: glioma blood vessels (CD31); test: CD31 immunohistochemical staining of glioma tissue (blood vessel density); assay type: in vivo, nude mice; settings: 20 mg/kg/day i.v., 11 days; tissue at day 15; n = 3
Experimental: as §2

[7] = compared with TAT or AT7 alone; cited from earlier work
Text: Intracranial delivery of therapeutic agents is primarily hindered by the BBB [24]. The intercellular tight junction caused by the BBB restricts the passive diffusion of almost all large-molecule and more than 98% of small-molecule drugs from peripheral blood circulation to the brain tissue. TAT ([…]), one of the most promising cationic cell-penetrating peptides (CPPs), has been widely applied in drug delivery due to its high efficiency to facilitate the tissue penetration and internalization of cargos and break through a variety of biological barriers, such as cell membrane ...

[8] = tested on: VEGF-induced rabbit corneal angiogenesis; settings: cited from earlier work
Text: Most peptides and proteins are usually functional and efficacious signaling molecules that naturally exist or are synthesized by artificial methods. Compared with proteins, peptides have higher tissue permeability, protease hydrolysis tolerability, and lower production costs. Furthermore, the pharmacological functions of peptides are easier to be improved by modification strategies, whereas their intrinsic properties are rarely affected. […] ATWLPPR (AT7), which was identified by a mutated phage lib ...

NRP-1 = tested on: NRP-1; design: method as in 2 sources, ref 21 = [21]; PMID 17983687; doi:10.1016/j.peptides.2007.09.013; 21. Starzec A. Ladam P. Vassy R. Badache S. Bouchemal N. Navaza A. du Penhoat C.H. Perret G.Y. Structure-function analysis of the antiangiogenic ATWLPPR peptide inhibiting VEGF (165) binding to neurop ||| ref 36 = [36]; PMID 11327725; doi:10.1006/bbrc.2001.4790; 36. Jia H. Lohr M. Jezequel S. Davis D. Shaikh S. Selwood D. Zachary I. Cysteine-rich and basic domain HIV-1 Tat peptides inhibit angiogenesis and induce endothelial cell apoptosis Biochem. Biophys. R; settings: C-terminal LPPR essential; cited from earlier work

Compound | migration rate (HUVECs [1]) | formation of tubular structures (HUVECs [2]) | total branch length of the tubular structure (HUVECs [2]; vs AT7, TAT, and TAT+AT7 groups) | number of apoptotic cells (Hoechst 33,258) (HUVECs [3]) | phosphorylation level of VEGFR-2 (VEGFR-2) | phosphorylation level of PLC-γ (PLC-γ) | phosphorylation level of SRC (SRC) | total expression levels of VEGFR-2 and the above kinases [4] | hemolysis (red blood cells) | hemolysis rate (red blood cells) | rate of weight loss [5] | toxicity and safety in nude mice ([5]; body weight and physiological status, 14th day) | blood vessel density (CD31) [6] | BBB-penetration capability [7] | effect on VEGF-induced rabbit corneal angiogenesis [8] | effect on VEGF-A165 binding to NRP-1 (NRP-1)
CC(C)C[C@H](NC(=O)[C@H](Cc1c[nH]c2ccccc12)NC(=O)[C@@H](NC(=O)[C@H](C)NC(=O)[C@H](CS)NC(=O)[C@H](CCCNC(=N)N)NC(=O)[C@H](CCCNC(=N)N)NC(=O)[C@H](CCCNC(=N)N)NC(=O)[C@H](CCC(N)=O)NC(=O)[C@H](CCCNC(=N)N)NC(=O)[C@H](CCCNC(=N)N)NC(=O)[C@H](CCCCN)NC(=O)[C@H](CCCCN)NC(=O)[C@@H](N)CCCNC(=N)N)[C@@H](C)O)C(=O)N1CCC[C@H]1C(=O)N1CCC[C@H]1C(=O)N[C@@H](CCCNC(=N)N)C(=O)O [TAT-AT7] | significantly lower than that of the control, AT7, TAT, and TAT+AT7 groups | significantly inhibit the formation of tubular structures in HUVECs | significantly reduced | significantly increased compared to the control, AT7, TAT, and TAT+AT7 groups | reduce the phosphorylation level of VEGFR-2 | significantly inhibited the phosphorylation level | significantly inhibited the phosphorylation level | no significant effect on the total expression levels | did not cause obvious hemolysis | lower than 5% | slower than that in the normal saline group | less toxicity and better safety for nude mice | significantly lower than that in the other groups | stronger BBB-penetration capabilities | – | –
ATWLPPR [AT7, ATWLPPR] | – | – | – | – | – | – | – | – | – | – | – | – | – | – | inhibitory effect on VEGF-induced rabbit corneal angiogenesis | inhibitory effect of AT7 on VEGF-A165 binding to NRP-1
